pIC50: −log10 of the molar value.
Experiments:
[1] = biological target: T1, Prostaglandin G/H synthase 1 (Ovis aries, UniProt P05979); assay: Inhibition of ovine COX-1 preincubated for 5 mins followed by addition of arachidonic acid as substrate measured after 2 mins by fluorescence analysis
T1 sequence (P05979 whole entry): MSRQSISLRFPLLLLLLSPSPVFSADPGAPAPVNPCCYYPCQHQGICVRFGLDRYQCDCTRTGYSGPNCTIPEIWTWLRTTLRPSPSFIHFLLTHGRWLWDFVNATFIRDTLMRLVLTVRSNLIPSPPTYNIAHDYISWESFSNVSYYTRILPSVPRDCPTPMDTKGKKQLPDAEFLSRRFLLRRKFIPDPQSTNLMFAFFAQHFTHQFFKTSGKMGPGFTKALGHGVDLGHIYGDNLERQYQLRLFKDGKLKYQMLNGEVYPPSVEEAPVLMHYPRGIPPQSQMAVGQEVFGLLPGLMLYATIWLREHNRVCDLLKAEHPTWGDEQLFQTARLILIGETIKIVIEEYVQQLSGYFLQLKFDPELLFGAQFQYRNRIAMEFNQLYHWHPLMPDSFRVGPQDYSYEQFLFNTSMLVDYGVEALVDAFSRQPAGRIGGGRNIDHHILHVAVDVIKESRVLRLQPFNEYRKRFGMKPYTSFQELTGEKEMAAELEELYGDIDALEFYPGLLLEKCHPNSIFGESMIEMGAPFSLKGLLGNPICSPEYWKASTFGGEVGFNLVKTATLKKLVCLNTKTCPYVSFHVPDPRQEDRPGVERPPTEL

[2] = biological target: T2, Prostaglandin G/H synthase 2 (Homo sapiens, UniProt P35354)
T2 sequence (P35354 whole entry): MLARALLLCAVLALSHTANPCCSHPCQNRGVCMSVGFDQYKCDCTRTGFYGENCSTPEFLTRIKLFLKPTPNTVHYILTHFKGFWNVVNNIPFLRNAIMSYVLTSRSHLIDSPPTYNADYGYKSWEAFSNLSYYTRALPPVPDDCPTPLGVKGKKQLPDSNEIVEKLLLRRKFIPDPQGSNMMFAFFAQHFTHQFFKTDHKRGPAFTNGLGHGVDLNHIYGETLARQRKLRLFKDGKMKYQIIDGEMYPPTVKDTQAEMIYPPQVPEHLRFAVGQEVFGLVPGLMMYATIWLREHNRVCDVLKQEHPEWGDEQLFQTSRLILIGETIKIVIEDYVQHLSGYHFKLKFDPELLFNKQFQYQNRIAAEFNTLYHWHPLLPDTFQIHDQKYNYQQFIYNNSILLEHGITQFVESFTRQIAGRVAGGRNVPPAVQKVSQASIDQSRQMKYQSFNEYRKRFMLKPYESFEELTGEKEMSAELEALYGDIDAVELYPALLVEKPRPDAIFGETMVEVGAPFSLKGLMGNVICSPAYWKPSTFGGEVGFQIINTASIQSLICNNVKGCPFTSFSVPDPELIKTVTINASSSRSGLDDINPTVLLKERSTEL

[3] = Selectivity index,ratio of IC50 for ovine COX-1 to recombinant human COX-2
[4] = biological target: T2, Prostaglandin G/H synthase 2; assay: Inhibition of COX-2 (unknown origin)
[5] = biological target: COX-1/COX-2 (Homo sapiens) (UniProt P35354+P23219); assay: Selectivity index, ratio of IC50 for COX-2 (unknown origin) to COX-1 (unknown origin)
Sequence of COX-1/COX-2 (Homo sapiens) (P23219 whole entry, looked up, one chain of several): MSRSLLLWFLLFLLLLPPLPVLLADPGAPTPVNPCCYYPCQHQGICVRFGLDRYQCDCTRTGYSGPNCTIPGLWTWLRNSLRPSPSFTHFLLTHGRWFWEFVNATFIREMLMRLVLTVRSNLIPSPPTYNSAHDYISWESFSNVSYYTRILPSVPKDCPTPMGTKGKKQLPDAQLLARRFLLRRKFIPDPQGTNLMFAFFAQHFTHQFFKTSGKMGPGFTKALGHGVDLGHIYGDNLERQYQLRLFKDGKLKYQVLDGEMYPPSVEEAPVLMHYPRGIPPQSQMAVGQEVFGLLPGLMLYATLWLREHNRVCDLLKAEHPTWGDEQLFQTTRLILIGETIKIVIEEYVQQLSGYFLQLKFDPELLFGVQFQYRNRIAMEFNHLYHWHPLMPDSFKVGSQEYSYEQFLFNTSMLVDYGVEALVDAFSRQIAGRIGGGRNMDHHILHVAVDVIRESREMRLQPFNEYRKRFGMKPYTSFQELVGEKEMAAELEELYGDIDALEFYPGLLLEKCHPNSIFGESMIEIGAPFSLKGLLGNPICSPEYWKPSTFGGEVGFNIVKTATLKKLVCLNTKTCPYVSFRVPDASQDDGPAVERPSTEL

| SMILES | pIC50 [1] | pIC50 [2] | Ratio IC50 [3] | pIC50 [4] | Ratio IC50 [5] |
| --- | --- | --- | --- | --- | --- |
| CS(=O)(=O)c1ccc(-c2cc(C(F)(F)F)nc(NCc3ccc(F)cc3)n2)cc1 | < 4.00 | – | – | – | – |
| CS(=O)(=O)c1ccc(-c2cc(C(F)(F)F)nc(OCc3ccc(I)cc3)n2)cc1 | < 4.00 | 5.60 | > 40 | – | – |
| CS(=O)(=O)c1ccc(-c2cc(C(F)(F)F)nc(NCc3ccc(I)cc3)n2)cc1 | < 4.00 | 6.07 | > 100 | – | – |
| Cc1ccc(Nc2c(F)cccc2I)c(CC(=O)O)c1 | – | – | – | 5.60 | 10 |
| NS(=O)(=O)c1ccc(-n2nc(C(F)(F)F)cc2-c2ccc(I)cc2)cc1 | – | – | – | 5.09 | 10 |
| NS(=O)(=O)c1ccc(-c2cc(C(F)(F)F)nc(NCc3ccc(I)cc3)n2)cc1 | < 4.00 | 4.89 | > 7.5 | – | – |
| CS(=O)(=O)c1ccc(-n2nc(C(F)(F)F)cc2-c2ccc(I)cc2)cc1 | – | – | – | 5.28 | – |
| Cc1ccc(Nc2c(F)cccc2Cl)c(CC(=O)O)c1 [LUMIRACOXIB] | – | – | – | 7.22 | – |
